Laboratory results: paper PMC12138715, “Exploring Boswellia serrata Triterpenes: A New Frontier in Leukemia Inhibitory Factor Receptor Modulation” (ACS Omega, 2025)

Legend:
[1] = target: T1, leukemia inhibitory factor receptor (LIFR) (Homo sapiens, UniProt P42702); experiment: biochemical; parameters: Alpha Screen inhibition of biotinylated LIF binding to His-tagged human LIFR; conditions: LIF/LIFR binding
T1 construct: Recombinant human LIFR (His-Tag)
Method: Amplified Luminescent Proximity Homogeneous Assay on LIF-LIFR Recombinant human LIFR (His-Tag) and LIF (biotinylated) were purchased from Sino Biologicals (Sino Biological Europe GmbH, Dusseldorf, Germany) and R&D Systems (Abingdon, UK), respectively, and both were reconstituted as required by the manufacturer. Inhibition of LIFR/LIF binding was measured by Alpha Screen, in white, low-volume, 384-well AlphaPlates (Revvity, Italy) using a final volume of 15 μL and an assay buffer containing 25 mM Hepes (pH 7.4), 100 mM NaCl, and 0.005% Kathon. The concentration of DMSO in each well was maintained at 5% vol/vol. LIFR (His-Tag, final concentration 4.5 nM) was incubated with either the compounds or DMSO for 45 min under continuous shaking. Then, LIF was added (biotinylated, final concentration 9 nM), and the samples were incubated for 15 min prior to adding nickel chelate acceptor beads (final concentration 20 ng/μL) for 30 min. Then, streptavidin donor beads were added (final concentration 20 ng/μL), and the plate was incubated in the dark for 2 h and then read in a Victor Nivo (Revvity, Italy) Multimode Microplate Reader.

[2] = test system: leukemia inhibitory factor receptor (LIFR); experiment: cells; parameters: LIFR/STAT3 luciferase reporter transactivation, LIF 10 ng/mL stimulated, Renilla normalized; conditions: Homo sapiens, HepG2, 24 h; LIF 10 ng/mL stimulated; read-out: Transactivation Inhibition (%), 50 µM
Method: Luciferase Reporter Gene Assay To evaluate the LIFR/STAT3 signaling, HepG2 (HB, 8065 from ATCC), were seeded at 7.5 × 10^4 cells/well in a 24-well plate and maintained at 37 °C and 5% CO2 in E-MEM added with 10% FBS, 1% glutamine, and 1% penicillin/streptomycin. On day-1, cells were transiently transfected with the reporter plasmid pGL4.47[luc2P/SIE/Hygro] (CAT no. E4041 Promega, Madison, WI, USA), a vector encoding the hLIFR (CAT no. RC226327) and CD130 (IL6ST) (CAT no. RC215123, OriGene Technologies, Inc. Rockville, MD USA), and finally a vector encoding the human Renilla luciferase gene (pGL4.70) (Promega, Madison, WI, USA). On day-2, cells were primed with the cytokine LIF (10 ng/mL) alone or in combination with different compounds at the concentrations of 10 μM and 50 μM. Then, after 24 h, cellular lysate was assayed for luciferase and Renilla activities using the Firefly & Renilla Luciferase Single TubeAssay Kit (Biotium, Fremont, CA). Luminescence was measured using Glomax 20/20 luminometer (Promega, Madison, WI, USA). Luciferase activities were normalized with Renilla activities.

[3] = target: T1, leukemia inhibitory factor receptor (LIFR); experiment: cell-free AlphaScreen LIF/LIFR binding inhibition; LIFR transactivation in HepG2
[4] = target: T1, leukemia inhibitory factor receptor (LIFR); experiment: cell-free AlphaScreen LIF/LIFR binding inhibition

T1 sequence (P42702 45-1097): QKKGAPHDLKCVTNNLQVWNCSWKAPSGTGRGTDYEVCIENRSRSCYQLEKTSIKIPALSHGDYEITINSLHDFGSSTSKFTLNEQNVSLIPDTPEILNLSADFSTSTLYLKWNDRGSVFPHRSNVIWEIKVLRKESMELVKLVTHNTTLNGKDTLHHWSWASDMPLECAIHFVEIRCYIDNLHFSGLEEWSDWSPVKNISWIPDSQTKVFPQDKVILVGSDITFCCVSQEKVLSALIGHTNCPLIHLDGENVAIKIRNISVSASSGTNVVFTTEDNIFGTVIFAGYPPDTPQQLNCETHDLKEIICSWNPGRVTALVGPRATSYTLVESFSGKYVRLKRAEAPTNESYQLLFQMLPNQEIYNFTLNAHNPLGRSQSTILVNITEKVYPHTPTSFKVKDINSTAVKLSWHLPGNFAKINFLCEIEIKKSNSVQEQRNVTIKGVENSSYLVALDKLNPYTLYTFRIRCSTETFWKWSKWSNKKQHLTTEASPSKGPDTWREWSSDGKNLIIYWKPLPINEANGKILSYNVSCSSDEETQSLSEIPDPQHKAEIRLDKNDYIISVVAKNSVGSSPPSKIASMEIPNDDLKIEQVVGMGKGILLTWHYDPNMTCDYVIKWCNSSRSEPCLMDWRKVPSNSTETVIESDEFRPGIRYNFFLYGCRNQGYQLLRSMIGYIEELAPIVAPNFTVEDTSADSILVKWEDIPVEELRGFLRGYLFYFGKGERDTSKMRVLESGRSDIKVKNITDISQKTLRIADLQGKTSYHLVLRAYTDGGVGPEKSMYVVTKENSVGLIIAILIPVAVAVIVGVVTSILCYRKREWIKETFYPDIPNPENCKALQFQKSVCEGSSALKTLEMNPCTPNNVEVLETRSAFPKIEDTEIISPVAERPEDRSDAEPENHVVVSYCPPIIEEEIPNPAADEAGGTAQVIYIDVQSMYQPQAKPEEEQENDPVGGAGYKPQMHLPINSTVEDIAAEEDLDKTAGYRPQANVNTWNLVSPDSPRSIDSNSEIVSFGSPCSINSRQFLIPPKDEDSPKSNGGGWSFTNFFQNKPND
T1 sequence (P15018 23-202 partner): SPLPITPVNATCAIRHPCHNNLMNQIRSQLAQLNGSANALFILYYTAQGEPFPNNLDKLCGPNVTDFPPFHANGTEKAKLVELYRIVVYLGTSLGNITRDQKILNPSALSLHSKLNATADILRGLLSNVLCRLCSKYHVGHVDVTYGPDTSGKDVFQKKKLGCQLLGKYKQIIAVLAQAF

Row | Structure (SMILES) | inhibition at 10 µM [1] [%] | inhibition at 50 µM [1] [%] | inhibition at 50 µM [2] [%] | further results
1 | CC1CCC2(C)CCC3(C)C(=CCC4C5(C)CCC(O)C(C)(C(=O)NCCS(=O)(=O)O)C5CCC43C)C2C1C (stereo not shown) [compound 23, 23] | 52.9 | 88.5 | 70.2 | –
2 | CC1(C)CC[C@]2(C)CC[C@]3(C)C(=CC[C@@H]4[C@@]5(C)CC[C@@H](O)[C@](C)(C(=O)O)[C@@H]5CC[C@]43C)[C@@H]2C1 [compound 1, (4R)-3α-Hydroxyolean-12-en-24-oic Acid] | – | – | – | IC50 [3]: < 10 µM
3 | CC(=O)O[C@@H]1CC[C@@]2(C)[C@@H](CC[C@]3(C)[C@@H]2CC=C2[C@@H]4[C@@H](C)[C@H](C)CC[C@]4(C)CC[C@]23C)[C@@]1(C)C(=O)O [compound 4, (4R)-3α-Acetylurs-12-en-24-oic Acid] | – | – | – | IC50 ([4]; read-out: IC50): < 10 µM
4 | C[C@H]1[C@H](C)CC[C@]2(C)CC[C@]3(C)C(=CC[C@@H]4[C@@]5(C)CC[C@@H](O)[C@](C)(C(=O)O)[C@@H]5CC[C@]43C)[C@H]12 [compound 2, (4R)-3α-Hydroxyurs-12-en-24-oic Acid] | – | – | – | IC50 [3]: < 10 µM
5 | CC(C)=CCC[C@H](C(=O)O)[C@@H]1CC[C@]2(C)C3=C(CC[C@@]12C)[C@@]1(C)CC[C@@H](O)C(C)(C)[C@@H]1CC3 [compound 15, 3α-Hydroxytirucalla-8,24-dien-21-oic Acid] | – | – | – | IC50 [4]: < 10 µM
6 | CC1CCC2(C)CCC3(C)C(=CCC4C5(C)CCC(O)C(C)(C(=O)NCC(=O)O)C5CCC43C)C2C1C (stereo not shown) [compound 24, 24] | 48.7 | 86.9 | 74.8 | –
7 | CC(C)=CCC[C@H](C(=O)O)[C@@H]1CC[C@]2(C)C3=C(CC[C@@]12C)[C@@]1(C)CCC(=O)C(C)(C)[C@@H]1CC3 [compound 17, 3-Oxotirucalla-8,24-dien-21-oic Acid] | – | – | – | IC50 [4]: < 10 µM
8 | CC(C)=CCC[C@H](C(=O)O)[C@@H]1CC[C@]2(C)C3=C(CC[C@@]12C)[C@@]1(C)CC[C@H](O)C(C)(C)[C@@H]1CC3 [compound 16, 3β-Hydroxytirucalla-8,24-dien-21-oic Acid] | – | – | – | IC50 [4]: < 10 µM
9 | CC1(C)CCC2(C)CCC3(C)C(=CCC4C5(C)CCC(O)C(C)(C(=O)NCCS(=O)(=O)O)C5CCC43C)C2C1 (stereo not shown) [compound 21, 21] | 45.4 | 67.7 | 68.8 | –
10 | CC(=O)O[C@@H]1CC[C@@]2(C)[C@@H](CC[C@]3(C)[C@@H]2CC=C2[C@@H]4CC(C)(C)CC[C@]4(C)CC[C@]23C)[C@@]1(C)C(=O)O [compound 3, (4R)-3α-Acetylolean-12-en-24-oic Acid] | – | – | – | IC50 ([4]; read-out: IC50): < 10 µM
11 | CC1(C)CCC2(C)CCC3(C)C(=CCC4C5(C)CCC(O)C(C)(C(=O)NCC(=O)O)C5CCC43C)C2C1 (stereo not shown) [compound 22, 22] | 51.3 | 83.7 | 58.3 | –
